In patent EP0694545B1, “Substituted dibenzoxazepine compounds, pharmaceutical compositions and methods of use” (G.D. SEARLE & CO., priority 1991, dated 1992):

Test system: Charles River male albino mice
Experiment: PBQ Writhing Assay (analgesic activity)
Assay type: in vivo
Design: key to PBQ WRITHING ASSAY I.G. (Active / *) / PBQ WRITHING ASSAY S.C. (Active / *): *: Indicates that, in accordance with the particular conditions set forth above for the Writhing Assay, and under the test criteria employed for that assay, after the administration of an initial screening dosage of 30 mg per kilogram of the compound, the number of writhes elicited by a mouse injected with PBQ was not equal to, or less than, one-half the median number of writhes recorded for the saline-treated control group of mice that day
Settings: initial screening dose 30 mg per kilogram, 30 min before PBQ i.p., writhes counted for ten minutes; for PBQ WRITHING ASSAY I.G. (Active / *): intragastric; for PBQ WRITHING ASSAY S.C. (Active / *): subcutaneous
Text: The Writhing Assay is one of the most widely-used experimental procedures for measuring the analgesic activity of different narcotic and nonnarcotic analgesic agents, and involves the continuous, chemically-induced pain of visceral origin to an animal, such as a mouse or rat. [Gyires et al., Arch. int. Pharmacodyn, 267, 131-140 (1984); […] al., Fed. Proc., 15, 494 (1956); Koster et al., Fed. Proc., 18, 412 (1959); and Witken et al., J. Pharmacol. exp. Ther., 133, 400-408 (1961).] Chemicals which may be used to induce this pain include phenylbenzoquinone (PBQ) and acetic acid. As a result of the chemical irritation to the animal, a characteristic stretching and writhing of the animal (dorsiflexion of the animal's back, extension of its hindlimbs and the strong contraction of its abdominal musculature) will generally occur. […] Drugs which reduce the number of writhes of the animal appear to restore the normal nociceptive threshold of the animal. Charles River male albino mice, weighing 20 to 30 grams were used in this assay. Thirty minutes after subcutaneous or intragastric administration to ten mice of 30 mg per kilogram of body weight of a compound of the present invention ("test compound"), […] per 10 g of body weight of a 0.025% w/v solution of PBQ was injected intraperitoneally into each mouse. Ten mice which were given saline in place of a test compound of the invention were used as a control group. Five minutes later, each mouse was individually placed into a glass beaker for observation, and the number of writhes occurring during the following ten-minute period was counted. A test compound was considered to have produced analgesia in a mouse if, in accordance with the conditions set forth above, and under the test criteria employed for this assay, after the administration of 30 mg per kilogram of body weight of a compound of the present invention to the mouse, the number of writhes elicited by a mouse injected with PBQ was equal to, or less than, one-half the median number of writhes recorded for the saline-treated control group of mice that day, as described by Taber in "Predictive Value of Analgesic Assays in Mice and Rats," Advances in Biochemical Psychopharmacology, 8, 191 (1974). The standard initial screening dose of a test compound employed in this assay was […] for both routes of administration. If this initial screening dose of the test compound produced analgesia in seven of ten mice, then the effect of additional doses of the test compound on the writhing response was evaluated, and then the ED50 dose was generally calculated. (The slopes of the dose-response curves for all test compounds analyzed were compared as described by Tallarida and Murray, Manual of Pharmacologic Calculations, Page 11 (Springer Verlag, New York, 1981)).

Row | Compound | PBQ WRITHING ASSAY I.G. (Active / *) | PBQ WRITHING ASSAY S.C. (Active / *)
1 | Cl.O=C(NNC(=O)N1Cc2ccccc2Oc2ccc(Cl)cc21)c1cccnc1 [Example 18, 8-chlorodibenz[b,f][1,4]oxazepine-10(11H)-carboxylic acid, 2-(3-pyridinylcarbonyl)hydrazide, monohydrochloride] | * | *
2 | O=C(CCCCc1cccs1)NNC(=O)N1Cc2ccccc2Oc2ccc(Cl)cc21 [Example 33, β-chlorodibenz[b,f][1,4]oxazepine-10(11H)-carboxylic acid, 2-[1-oxo-5-(2-thienyl)pentyl]hydrazide] | * | *
3 | O=C(/C=C/c1cccnc1)NNC(=O)N1Cc2ccccc2Oc2ccc(Cl)cc21 [Example 7, 8-chlorodibenz[b,f][1,4]oxazepine-10(11H)-carboxylic acid, 2-[1-oxo-3-(3-pyridinyl)-2E-propenyl]hydrazide] | Active | Active
4 | 8-chlorodibenz[b,f][1,4]oxazepine-10(11H)-carboxylic acid, 2-[1-oxo-4-(3-thienyl)-3E-butenyl]hydrazide [Example 13] | * | *
5 | Cl.O=C(NNC(=O)N1Cc2ccccc2Oc2ccc(Cl)cc21)c1ccncc1 [Example 17, 8-chlorodibenz[b,f][1,4]oxazepine-10(11H)-carboxylic acid, 2-(4-pyridinylcarbonyl)hydrazide, monohydrochloride] | * | *
6 | Cl.O=C(Cc1cccnc1)NNC(=O)N1Cc2ccccc2Oc2ccc(Cl)cc21 [Example 22, 8-chlorodibenz[b,f][1,4]oxazepine-10(11H)-carboxylic acid, 2-(3-pyridinylacetyl)hydrazide, monohydrochloride] | * | Active
7 | O=C(CCCc1ccncc1)NNC(=O)N1Cc2ccccc2Oc2ccc(Cl)cc21 [Example 31, 8-chlorodibenz[b,f][1,4]oxazepine-10(11H)-carboxylic acid, 2-[1-oxo-4-(4-pyridinyl)butyl]hydrazide] | Active | Active
8 | 8-chlorodibenz[b,f][1,4loxazepine-10(11H)-carboxylic acid, 2-(2-pyridinylacetyl)hydrazide, monohydrochloride [Example 21] | * | *
9 | Cl.O=C(/C=C/c1ccccn1)NNC(=O)N1Cc2ccccc2Oc2ccc(Cl)cc21 [Example 20, 8-chlorodibenz[b,f][1,4]oxazepine-10(11H)-carboxylic acid, 2-[1-oxo-3-(2-pyridinyl)-2E-propenyl]hydrazide, monohydrochloride] | * | *
10 | O=C(CCc1cccc[n+]1[O-])NNC(=O)N1Cc2ccccc2Oc2ccc(Cl)cc21 [Example 10, 8-chlorodibenz[b,f][1,4]oxazepine-10(11H)--carboxylic acid, 2-[1-oxo-3-(2-pyridinyl)propyl]hydrazide, N-oxide] | * | *
11 | Cl.O=C(CCCc1ccccn1)NNC(=O)N1Cc2ccccc2Oc2ccc(Cl)cc21 [Example 29, 8-chlorodibenz[b,f][1,4]oxazepine-10(11H)-carboxylic acid, 2-[1-oxo-4-(2-pyridinyl)butyl]hydrazide, monohydrochloride] | Active | Active
12 | Cl.O=C(/C=C/c1ccncc1)NNC(=O)N1Cc2ccccc2Oc2ccc(Cl)cc21 [Example 27, 8-chlorodibenz[b,f][1,4]oxazepine-10(11H)-carboxylic acid, 2-[1-oxo-3-(4-pyridinyl)-2E-propenyl]hydrazide, monohydrochloride] | * | *
